Values quoted from earlier work in US20050215535A1, “Sequential SPRM/progestin treatment” (priority 2004, published 2005).

Experiments:
progesterone receptor = molecular target: T1, progesterone receptor (Oryctolagus cuniculus, UniProt P06186); conditions: rabbit model; for McPhail score: scale of 0-4
T1 construct: SPRMs score lower than progesterone in the McPhail bioassay in rabbits; from tissue; host or cells: living rabbit (in vivo; the endometrium as read-out tissue is own knowledge of the McPhail test)
T1 sequence (P06186 1-930): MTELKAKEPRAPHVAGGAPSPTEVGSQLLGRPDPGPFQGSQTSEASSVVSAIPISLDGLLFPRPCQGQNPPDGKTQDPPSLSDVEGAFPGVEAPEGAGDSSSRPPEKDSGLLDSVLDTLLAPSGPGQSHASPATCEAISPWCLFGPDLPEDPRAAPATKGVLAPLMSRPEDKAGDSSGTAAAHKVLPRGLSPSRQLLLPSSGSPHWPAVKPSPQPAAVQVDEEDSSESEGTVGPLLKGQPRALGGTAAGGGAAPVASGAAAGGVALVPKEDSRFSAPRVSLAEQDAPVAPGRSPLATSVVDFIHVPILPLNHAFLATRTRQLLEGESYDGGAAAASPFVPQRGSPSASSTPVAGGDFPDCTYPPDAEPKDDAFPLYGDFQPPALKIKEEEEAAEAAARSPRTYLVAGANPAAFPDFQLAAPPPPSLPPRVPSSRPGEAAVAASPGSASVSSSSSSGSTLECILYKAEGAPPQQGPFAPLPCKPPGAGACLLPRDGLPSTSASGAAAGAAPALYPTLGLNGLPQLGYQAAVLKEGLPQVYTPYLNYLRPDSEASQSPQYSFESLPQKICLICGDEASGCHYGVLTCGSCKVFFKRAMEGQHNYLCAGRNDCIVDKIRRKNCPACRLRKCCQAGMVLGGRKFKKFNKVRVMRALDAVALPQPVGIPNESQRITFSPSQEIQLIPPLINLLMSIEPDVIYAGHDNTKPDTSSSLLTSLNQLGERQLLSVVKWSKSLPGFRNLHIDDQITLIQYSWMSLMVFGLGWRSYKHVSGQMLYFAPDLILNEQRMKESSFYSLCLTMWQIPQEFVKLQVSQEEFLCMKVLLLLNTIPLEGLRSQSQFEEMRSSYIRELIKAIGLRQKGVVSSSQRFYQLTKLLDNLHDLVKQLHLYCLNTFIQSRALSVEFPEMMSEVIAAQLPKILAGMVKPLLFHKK

Row | SMILES | time to withdrawal bleeding (start of spontaneous menstrual cycle) after stopping the SPRM treatment (premenopausal women; all subjects) | resumption of menstruation after cessation of treatment (premenopausal women; majority of subjects) [days] | agonist activity in the McPhail test (progesterone receptor) | McPhail score (progesterone receptor)
1 | COC[C@]1(OC)CC[C@H]2[C@@H]3CCC4=CC(=O)CCC4=C3[C@@H](c3ccc(/C=N/O)cc3)C[C@@]21C [J867] | up to 90 days | ≤ 30 |  | 
2 | CC#C[C@]1(O)CC[C@H]2[C@@H]3CCC4=CC(=O)CCC4=C3[C@@H](c3ccc(N(C)C)cc3)C[C@@]21C [RU486, mifepristone] |  |  | do not show any agonist activity | less than 0.5
3 | CN(C)c1ccc([C@H]2C[C@]3(C)[C@@H](CC[C@]3(O)CCCO)[C@@H]3CCC4=CC(=O)CCC4=C32)cc1 [onapristone] |  |  | do not show any agonist activity | 
4 | CC(=O)[C@H]1CC[C@H]2[C@@H]3CCC4=CC(=O)CC[C@]4(C)[C@H]3CC[C@]12C [progesterone] |  |  |  | 4
